Assay results reported in patent US10793535B2, “Heterocyclic glutaminase inhibitors” (Calithera Biosciences, Inc., priority 2012, dated 2020).
Read-outs that look alike come from different tables or passages of the source. Each block holds one molecule with its values, some of them ahead of it.

Assays:
P493-6 (myc "on") cells = test: Cell proliferation assay; type: cell-based; details: read-out: Cell prolif P493 72 h IC50
Description: P493-6 (myc “on”) cells were maintained in growth media (RPMI-1640, 10% FBS, 2 mM glutamine, 100 units/ml Penicillin and 100 μg/ml streptomycin) at 37° C. with 5% CO2. For compound assay, P493-6 cells were plated in 96-well V-bottom plates on the day of compound addition in 50 μl of growth media at a cell density of 200,000 cells/ml (10,000 cells/well). Compounds were serially diluted in 100% DMSO at 200-times the final concentration. Compounds were diluted 100-fold into growth media and then 50 μl of this mixture was added to cell plates making the final concentration of DMSO 0.5%. Cells were incubated with compound for 72 hrs at 37° C. with 5% CO2 and analyzed for antiproliferative effects either by Cell Titer Glo (Promega) or FACS analysis using the Viacount (Millipore) kit on the Guava instrument.

Caco-2 cell monolayers = test: Caco-2 permeability assay; type: in vitro ADME, human
Excerpt: Caco-2 cells are commonly used in a confluent monolayer on a cell culture insert filter. When cultured in this format and under specific conditions, the cells become differentiated and polarized such that their phenotype, morphologically and functionally resembles the enterocytes lining the small intestine. The cell monolayer provides a physical and biochemical barrier to the passage of small molecules, and is widely used across the pharmaceutical industry as an in vitro model of the human small intestinal mucosa to predict the absorption of orally administered drugs (Hidalgo et al., Gastroenterology, 1989; Artursson, J. Pharm. Sci., 1990). The correlation between the in vitro apparent permeability (P ? app) across Caco-2 monolayers and the in vivo absorption is well established (Artursson et al., Biochem. Biophys. Res. Comm., 1991).
The present assay was used to determine the bidirectional permeability of the compounds of the invention through Caco-2 cell monolayers. Caco-2 cells were grown in confluent monolayers where the media of both the apical (A) and basolateral (B) sides were at pH 7.4. Compounds were dosed at 1 μM in the presence of 200 μM Lucifer Yellow, on the apical side (A→B) or the basolateral side (B→A) for assessment, in duplicate.
The absorption potential of compounds were classified as either Low (P-app<1×10^−6 cm/s) or High (P-app>1×10^−6 cm/s).

[1] = Pharmacokinetic studies in mice; type: in vivo; details: female, CD-1, mouse, plasma, po
Description: For PK studies performed in mice, female CD-1 mice, age 5-8 weeks, were dosed orally by gavage (10 mL/kg volume) with test compounds. At pre-determined time-points (e.g. 1, 3, and 6 hrs) post-dosing, groups of three mice were sacrificed by CO2 inhalation and blood collected via cardiac puncture. Blood samples were placed into K2 EDTA coated tubes and kept on ice. Samples were centrifuged at 2000×g for 10 minutes at 4° C. and plasma isolated. Plasma was stored at ˜70° C. until bioanalytical analysis.
(§1) The plasma samples were analyzed using Liquid chromatography tandem mass spectrometry (LC/MS/MS) methods. Frozen plasma samples were thawed on ice or room temperature. Aliquotes of study plasma samples and calibration samples prepared in the same matrix as the study samples were quenched in an organic solvent (methanol, acetonitrole or DMF) containing an internal standard. The mixtures were then centrifuged and filtered and the filtrates were injected to an LC/MS/MS system to determine concentrations of test compounds.

[2] = tested on: multiple myeloma cells (MM1S cells, RPMI-8226 cells); test: Treatment of multiple myeloma cells with a combination of drugs; type: cell-based; details: 72 hours, Cell Titer Glo, combination indices (Calcusyn)
Description: At the end of the incubation, cell viability was measured using Cell Titer Glo as per manufacturer's protocol (Promega, Madison, Wis.). Measured values for compound-treated cells were normalized to DMSO-treated cells and data is reported as a cell survival ratio with a value of 1 (one) corresponding to maximum cell survival and a value of 0 (zero) corresponding to no cell survival. Cell survival ratios for all compound treatments are represented as bar graphs. Combination indices were calculated using the Calcusyn program (biosoft.com) and reported for individual mixtures of compound 670 and pomalidomide [POM] (panels A &C) and individual mixtures of compound 670 and dexamethasone [DEX] (panels B & D). Compound mixtures that produced a synergistic anti-tumor activity are highlighted.

[3] = Pharmacokinetic studies in rats; type: in vivo; details: female, Sprague-Dawley, plasma, Rat
Description: For PK studies performed in rats, groups of three female Sprague-Dawley Rats, age 7-10 weeks, with jugular vein cannulae were dosed orally by gavage (5-10 mL/kg) with test compounds. Serial blood samples were collected via the jugular vein cannulae at multiple time-points pre and post-dose. Blood samples were placed into K2 EDTA coated tubes on kept on ice. Samples were centrifuged at 2500×g for 10 minutes at 4° C. and plasma isolated. Plasma was stored at ˜70° C. until bioanalytical analysis.
as §1

[4] = tested on: RPMI-8226 multiple myeloma xenograft; test: Multiple myeloma xenograft study; type: in vivo, mouse; details: RPMI-8226 xenograft, 200 mg/kg orally BID for 28 days
Description: Female CB.17 SCID mice (n=20) age 8-12 weeks were implanted subcutaneously with 1×10^7 RPMI-8226 myeloma cells per mouse mixed 1:1 with Matrigel. […] For both groups, dosing was initiated when tumors reached a volume of 100-150 mm^3 and continued orally BID for 28 days. Tumors were measured with calipers two times per week and tumor volume calculated using the formula tumor volume (mm^3)=(a×b^2/2) where ‘b’ is the smallest diameter and ‘a’ is the largest perpendicular diameter. **P-value <0.01 (Two-sided T-test).

[5] = tested on: H2122 lung adenocarcinoma xenograft; test: Lung adenocarcinoma xenograft efficacy study; type: in vivo, mouse; details: 200 mg/kg orally BID for 23 days
Description: Female scid/beige mice (n=20) age 6-8 weeks were implanted subcutaneously with 1×10^7 H2122 lung adenocarcinoma cells per mouse suspended in PBS. […] For both groups, dosing was initiated 24 hours post-implant and continued orally BID for 23 days. Tumors were measured with calipers three times per week and tumor volume calculated using the formula tumor volume (mm^3)=(a×b^2/2) where ‘b’ is the smallest diameter and ‘a’ is the largest perpendicular diameter. **P-value <0.01 (Two-sided T-test).

[6] = 50 mg/kg, 50 mg/kg oral, 0.5% CMC/0.1% PS80, Suspension
[7] = 50 mg/kg, 50 mg/kg oral, Capryol PGMC, Suspension
[8] = 25 mg/kg oral, 20% HPBCD/10 mM Citrate pH 2.0, Solution
[9] = 80 mg/kg oral, 65% HPBCD/10 mM Citrate pH 2.6, Solution
[10] = 250 mg/kg oral, 40% HPBCD/10 mM Citrate pH 2.2, Solution
[11] = 500 mg/kg oral, 40% HPBCD/10 mM Citrate pH 2.2, Solution
[12] = 100 mg/kg, 100 mg/kg oral, 25% HPBCD/10 mM Citrate pH 2.2, Solution
[13] = 200 mg/kg, 200 mg/kg oral, 25% HPBCD/10 mM Citrate pH 2.2, Solution
[14] = 50 mg/kg oral, Eudragit L100-55 solid dispersion, Suspension
[15] = 50 mg/kg, 50 mg/kg oral, 1% NMP/99% Gelucire, Solution
[16] = 50 mg/kg, 50 mg/kg oral, Eudragit L100-55 solid dispersion, Suspension
[17] = 50 mg/kg, 50 mg/kg oral, 2% NMP/98% Gelucire, Solution

Structure (SMILES): O=C(Cc1ccccc1)Nc1ccc(CCCCc2nnc(NC(=O)C(O)c3cccc(Cl)c3)s2)nn1 (stereo not shown) [Compound 318]
IC50 (P493-6 (myc "on") cells; P493-6, 72 h): 17 nM
Significant Efflux (Caco-2 cell monolayers): Yes (efflux ratios being significant when greater than or equal to 3 when the Papp (B→A) was greater than or equal to 1×10^−6 cm/s)
Cmax [1, 6]: 0.01 µM
Tmax [1, 6]: 1 h
Cmax [1, 7]: 0.08 µM
Tmax [1, 7]: 3 h

Structure (SMILES): O=C(Cc1ccccc1)Nc1ccc(CCCCc2nnc(NC(=O)Cc3ccccc3)s2)nn1 [Compound 295]
IC50 (P493-6 (myc "on") cells; P493-6, 72 h): 39 nM
Significant Efflux (Caco-2 cell monolayers): Yes (efflux ratios being significant when greater than or equal to 3 when the Papp (B→A) was greater than or equal to 1×10^−6 cm/s)
Cmax [1, 16]: 0.02 µM
Tmax [1, 16]: 6 h

Now from value to molecule, other results behind:

Cmax [3, 8]: 4.4 µM
Tmax [3, 8]: 1 h
Cmax [3, 9]: 12.5 µM
Tmax [3, 9]: 1 h
Cmax [3, 10]: 9.9 µM
Tmax [3, 10]: 24 h
Cmax [3, 11]: 15.3 µM
Tmax [3, 11]: 2 h
Cmax [1, 12]: 5.75 µM
Tmax [1, 12]: 1 h
Cmax [1, 13]: 5.05 µM
Tmax [1, 13]: 1 h
Structure (SMILES): O=C(Cc1cccc(OC(F)(F)F)c1)Nc1ccc(CCCCc2nnc(NC(=O)Cc3ccccn3)s2)nn1 [Compound 670]
anti-tumor effect in combination with dexamethasone [2]: synergizes
anti-tumor effect in combination with pomalidomide [2]: synergizes
tumor size [4]: reduced tumor size
IC50 (P493-6 (myc "on") cells; 72 h): 30 nM
Significant Efflux (Caco-2 cell monolayers): Yes (efflux ratios being significant when greater than or equal to 3 when the Papp (B→A) was greater than or equal to 1×10^−6 cm/s)
tumor size [5]: reduced tumor size

Cmax [3, 14]: 1.15 µM
Tmax [3, 14]: 2 h
Cmax [1, 15]: 5.16 µM
Tmax [1, 15]: 1 h
Cmax [1, 16]: 0.93 µM
Tmax [1, 16]: 3 h
Structure (SMILES): O=C(Cc1cccc(OC(F)(F)F)c1)Nc1ccc(CCCCc2nnc(NC(=O)Cc3ccccc3)s2)nn1 [Compound 585]
IC50 (P493-6 (myc "on") cells; P493-6, 72 h): 70 nM
Significant Efflux (Caco-2 cell monolayers): Yes (efflux ratios being significant when greater than or equal to 3 when the Papp (B→A) was greater than or equal to 1×10^−6 cm/s)

Cmax [1, 17]: 1.13 µM
Tmax [1, 17]: 1 h
Structure (SMILES): O=C(Cc1cccc(OC(F)(F)F)c1)Nc1ccc(CCCCc2nnc(NC(=O)C(O)c3cccc(Cl)c3)s2)nn1 (stereo not shown) [Compound 447]
IC50 (P493-6 (myc "on") cells; P493-6, 72 h): 16 nM
Significant Efflux (Caco-2 cell monolayers): Yes (efflux ratios being significant when greater than or equal to 3 when the Papp (B→A) was greater than or equal to 1×10^−6 cm/s)
